Data taken from patent publication US20240043860A1, “NOVEL HYDROXYPHENYLPYRUVATE DIOXYGENASE POLYPEPTIDES AND METHODS OF USE THEREOF” (Syngenta Crop Protection AG, priority 2020, published 2024).
Several values for one entry are separate records, joined by “and”; a condition that tells them apart may be missing. Equal entries are not always repeated. Where two headings read alike, the source gives them in different places.

How the values were obtained:
[1] = system: wild-type tobacco plants; assay: spray test, herbicidal damage scoring; assay type: in vivo; conditions: Table 4.1, 7 days after treatment, 100=complete death, 0=no damage, one value per plant/event
Protocol: (§1) Once rooted, plantlets are transferred from agar and potted into 50% peat, 50% John Innes Soil No. 3 or, for example, MetroMix® 380 soil (Sun Gro Horticulture, Bellevue, WA) with slow-release fertilizer in 3 inch round or 4 inch square pots and left regularly watered to establish for 8-12d in the glass house. Glass house conditions are about 24-27° C. day; 18-21° C. night and approximately a 14h (or longer in UK summer) photoperiod.
(§2) About 20-30 TO events are produced for a number of HPPD variant genes.
(§3) Tables 4.1-4.9 show the herbicidal damage scoring on transgenic tobacco plants 7 days after treatment. A score of 100=complete death and 0=no damage observed.

[2] = system: HPPD variant ALOME V162 (SEQ ID NO: 126); assay: coupled HGO assay; assay type: biochemical, Alopecurus myosuroides
Protocol: (§4) DNA sequences (SEQ ID NOs: 65-118, 128, 130, 131, and 133), synthesized for expression in E. coli, by GeneWiz (USA) to encode HPPD variants (SEQ ID NOs: 5-58, 122, 124, 125 and 127) derived from either Avena sativa (SEQ ID NOs: 122, 124), Alopecurus myosuroides (SEQ ID NO: 126) or Apera spica-venti (SEQ ID NOs: 123, 125) were transformed into E coli BL21 (DE3) (New England Biolabs) and grown in 0.5 ml Terrific broth +50 ug/ml Kanamycin media in a 96-deepwell block overnight (37° C., 900rpm). 25 ul of the overnight cultures were inoculated into fresh 96-deepwell block containing 1 ml Formedium Autoinduction Media (AIM). The AIM cultures were grown for 3h at 37° C. (900rpm) and then transferred to 20° C. overnight (900rpm) to allow protein expression. The overnight cultures were centrifuged and 500 ul of Cellytic B (Sigma Aldrich) was added to resuspend the cell pellets. The coupled HGO assay (Siehl et al, 2014) is used to generate IC50 values for the HPPD variants of interest.
(§5) E. coli BL21 (DE3) cells were transformed with a pET24a vector containing a C-terminally his-tagged Arabidopsis HGO gene, grown and induced overnight as described for the HPPD variants above. The cell pellet was resuspended in phosphate buffered saline at pH 7.4 containing 10% Glycerol, 1mm Tris[2-carboxyethyl] phosphine-HCl (TCEP) plus 30 mM Imidazole and lysed using lysozyme/benzonase. The extract was clarified by low speed centrifugation and purified in the same buffer down a 1 ml His Gravitrap column. The bound HGO was eluted in 0.25M imidazole and the fractions pooled and beaded into liquid nitrogen. All procedures apart from the centrifugation and beading steps were carried out under a nitrogen atmosphere.
(§6) The coupled HGO assay is carried out by adding 10 ul of HPPD extract to a 96-well plate and then adding 40 ul of reaction buffer (50 mM Bis Tris Propane, pH7.0, 25 mM sodium-L-ascorbate, 400μM mercaptoethanol, 50 μM Fe(II)SO4). The plates are left to incubate for 5 minutes on ice. […] 200 ul of HPP/HGO (197 μM hydroxyphenylpyruvic acid, 16 μl/ml Homogentisic Acid Oxidase in reaction buffer as described above) buffer is then added to the well and the reaction is regularly monitored (e.g. every 30 seconds-5 minutes) for absorbance at 330 nm for a given time period (e.g., for between 15-60 minutes). The data can then be used to calculate the IC50 value for each HPPD variant of interest.

[3] = system: HPPD variant APESV V162 (SEQ ID NO: 123); assay: coupled HGO assay; assay type: biochemical, Apera spica-venti
Protocol: as §4, §5, §6

[4] = biological target: HPPD variant AVESA V296 (SEQ ID NO: 20) (Avena sativa, UniProt A0ACD5V6K6, A327R/G411A/I340E/L359Y/R214G/V218I); assay: biochemical; assay type: biochemical
Protocol: (§7) 25 ul of the overnight cultures were inoculated into fresh 96-deepwell block containing 1 ml Formedium Autoinduction Media (AIM). The AIM cultures were grown for 3h at 37° C. (900rpm) and then transferred to 20° C. overnight (900rpm) to allow protein expression. The overnight cultures were centrifuged and 500 ul of Cellytic B (Sigma Aldrich) was added to resuspend the cell pellets. The coupled HGO assay (Siehl et al, 2014) is used to generate IC50 values for the HPPD variants of interest.
as §5, §6

[5] = biological target: HPPD variant AVESA V358 (SEQ ID NO: 56) (Avena sativa, UniProt A0ACD5V6K6, A327R/I340E/L359M/P271N/R214G/S304T/V218I/V260A); assay: biochemical; assay type: biochemical
Protocol: as §7, §5, §6

[6] = biological target: HPPD variant AVESA V180 (SEQ ID NO: 124) (Avena sativa, UniProt A0ACD5V6K6, A327R/G411A/I340E/L359M/V218I); assay: biochemical; assay type: biochemical
Protocol: as §7, §5, §6

[7] = system: transgenic tobacco plants expressing mutant HPPD SEQ ID NO: 122; assay: spray test, herbicidal damage scoring; assay type: in vivo; conditions: 7 days after treatment, 100=complete death, 0=no damage, one value per event
Protocol: DNA sequences that encode these polypeptides (optimized for tobacco or, optionally, codon optimized according to a target crop such as soybean) were prepared synthetically. Each sequence was designed to include a 5′ fusion with TMV omega 5′ leader sequence such that they are flanked at the 5′ end with XhoI and at the 3′ end with KpnI to facilitate direct cloning into a suitable binary vector for Agrobacterium-based plant transformation.
For example, a master plate of Agrobacterium tumefaciens containing the HPPD expressing the binary vector is used to inoculate 10 ml LB (L broth) containing 100 mg/l Rifampicin plus 50 mg/l Kanamycin using a single bacterial colony. This is incubated overnight at 28° C. shaking at 200 rpm. This entire overnight culture is used to inoculate a 50 ml volume of LB containing the same antibiotics. Again this is cultured overnight at 28° C. shaking at 200 rpm. The Agrobacterium cells are pelleted by centrifuging at 3000 rpm for 15 minutes and then resuspended in MS (Murashige and Skoog) medium containing 30 g/l sucrose, pH 5.9 to an OD […]=0.6. This suspension is dispensed in 25 ml aliquots into petri dishes.
as §1, §2
Single copy events amongst the Ti plant lines are identified by their 3:1 segregation ratio (with respect to kanamycin and/or herbicide) and by quantitative RT-PCR. Seed from the thus selected Ti tobacco (var. Samsun) lines are sown in 3 inch diameter pots containing 50% peat and 50% John Innes Soil No. 3. […] HPPD expression levels were monitored by Western analysis.
as §3

[8] = AVESA V296, SEQ ID NO: 20, read-out: IC50
[9] = AVESA V358, SEQ ID NO: 56, read-out: IC50
[10] = AVESA V180, SEQ ID NO: 124, read-out: IC50

Sequence of HPPD variant AVESA V296 (SEQ ID NO: 20) (A0ACD5V6K6 entry or part of it R214G/V218I/A327R/I340E/L359Y/G411A): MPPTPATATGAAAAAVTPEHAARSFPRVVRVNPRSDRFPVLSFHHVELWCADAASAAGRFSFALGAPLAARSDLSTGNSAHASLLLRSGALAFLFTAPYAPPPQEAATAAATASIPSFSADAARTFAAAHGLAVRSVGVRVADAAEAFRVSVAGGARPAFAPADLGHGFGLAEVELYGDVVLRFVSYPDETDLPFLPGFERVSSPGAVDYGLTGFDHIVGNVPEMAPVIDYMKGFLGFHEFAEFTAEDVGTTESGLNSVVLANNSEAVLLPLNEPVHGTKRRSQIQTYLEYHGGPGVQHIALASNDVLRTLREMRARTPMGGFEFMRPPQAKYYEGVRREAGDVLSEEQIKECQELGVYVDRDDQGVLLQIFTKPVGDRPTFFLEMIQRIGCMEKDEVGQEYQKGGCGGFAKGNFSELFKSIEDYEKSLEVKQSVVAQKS
Sequence of HPPD variant AVESA V358 (SEQ ID NO: 56) (A0ACD5V6K6 entry or part of it R214G/V218I/V260A/P271N/S304T/A327R/I340E/L359M): as the sequence (A0ACD5V6K6 entry or part of it R214G/V218I/A327R/I340E/L359Y/G411A) above, with V260A, P271N, S304T, Y359M, A411G counted along it
Sequence of HPPD variant AVESA V180 (SEQ ID NO: 124) (A0ACD5V6K6 entry or part of it V218I/A327R/I340E/L359M/G411A): as the sequence (A0ACD5V6K6 entry or part of it R214G/V218I/A327R/I340E/L359Y/G411A) above, with G214R, Y359M counted along it

| Molecule | herbicidal damage scoring, Herbicide C 100 g/ha [1] | herbicidal damage scoring, Herbicide C (200 g/ha) [1] | IC50 [2] [nM] | IC50 [3] [nM] | IC50 [4, 8] [nM] | IC50 [5, 9] [nM] | IC50 [6, 10] [nM] | herbicidal damage scoring, Herbicide C 100 g/ha ([7]; Table 3.1, plants expressing SEQ ID 122) | herbicidal damage scoring, Herbicide C (200 g/ha) ([7]; Table 4.4, SEQ ID NO: 122) | herbicidal damage scoring, Herbicide D (2000 g/ha) [1] | IC50 [4] [nM] | IC50 [5] [nM] | IC50 [6] [nM] | herbicidal damage scoring, Herbicide D (2000 g/ha) ([7]; Table 4.4, SEQ ID NO: 122) | herbicidal damage scoring, Bicyclopyrone (800 g/ha) [1] | herbicidal damage scoring, Bicyclopyrone (800 g/ha) ([7]; Table 4.4, SEQ ID NO: 122) |
| --- | --- | --- | --- | --- | --- | --- | --- | --- | --- | --- | --- | --- | --- | --- | --- | --- |
| COc1ccc(-n2nc(C)cc(C(=O)C3C(=O)CCCC3=O)c2=O)cc1OC [Herbicide C, dioxopyritrione] | 95 and 99 and 96 | 95 and 97 and 98 and 96 | 250 | 260 | 1300 | < 190 | 610 | 90 and 70 and 95 and 96 | 99 and 95 and 97 and 98 | – | – | – | – | – | – | – |
| Cn1nnnc1NC(=O)c1ccc(C(F)(F)F)nc1-n1cncn1 [Herbicide D, N-(1-methyltetrazol-5-yl)-2-(1,2,4-triazol-1-yl)-6-(trifluoromethyl)pyridine-3-carboxamide] | – | – | 10500 | 11400 | – | – | – | – | – | 99 and 96 and 97 and 95 | > 500000 | 177000 | > 500000 | 80 and 70 and 65 and 75 and 85 and 60 | – | – |
| bicyclopyrone | – | – | 530 | < 390 | > 500000 | < 390 | 55600 | – | – | – | – | – | – | – | 95 | 60 and 50 and 55 and 65 and 35 and 70 and 40 |
